A short description of one data set: physchem. The note with it: buffer, pH 7.4.
A further data set can be described thus: in vitro. The note with it: human, Caco-2.

Structures are written as SMILES.

What is called logD is the decadic logarithm of the distribution of all forms, ionised or not, between an organic phase and buffer at a given pH. Broadly, the Papp A→B is the apparent permeability from the apical to the basolateral side of a cell layer. As to `C[C@H]1C[C@@H](c2ccncc2NC(=O)c2ccc(F)c(-c3c(F)cccc3F)n2)C[C@@H](O)[C@@H]1O`, in “physchem”, the logD was 3. Moreover, in “in vitro”, the Papp A→B was found to be 28.8 ×10⁻⁶ cm/s.
The compound `C[C@@H]1C[C@H](N)C[C@H](c2ccncc2NC(=O)c2ccc(F)c(-c3c(F)cccc3F)n2)C1` [LGH-447] showed a logD in the data set “physchem” of 1.9. The apical-to-basolateral permeability (Papp A→B) in “in vitro” turned out to be 8.5 ×10⁻⁶ cm/s.

The values above are taken from ChEMBL document CHEMBL4715870, “Synthesis and Structure-Activity Relationship of Tetra-Substituted Cyclohexyl Diol Inhibitors of Proviral Insertion of Moloney Virus (PIM) Kinases” (J Med Chem, 2020).
